Reference: ChEMBL document CHEMBL5291721, “A preclinical secondary pharmacology resource illuminates target-adverse drug reaction associations of marketed drugs” (Nat Commun, 2023)

Tests used:
[1] = molecular target: T1, Muscarinic acetylcholine receptor M2 (Homo sapiens, UniProt P08172); assay type: functional, cell-based
T1 sequence (P08172 whole entry): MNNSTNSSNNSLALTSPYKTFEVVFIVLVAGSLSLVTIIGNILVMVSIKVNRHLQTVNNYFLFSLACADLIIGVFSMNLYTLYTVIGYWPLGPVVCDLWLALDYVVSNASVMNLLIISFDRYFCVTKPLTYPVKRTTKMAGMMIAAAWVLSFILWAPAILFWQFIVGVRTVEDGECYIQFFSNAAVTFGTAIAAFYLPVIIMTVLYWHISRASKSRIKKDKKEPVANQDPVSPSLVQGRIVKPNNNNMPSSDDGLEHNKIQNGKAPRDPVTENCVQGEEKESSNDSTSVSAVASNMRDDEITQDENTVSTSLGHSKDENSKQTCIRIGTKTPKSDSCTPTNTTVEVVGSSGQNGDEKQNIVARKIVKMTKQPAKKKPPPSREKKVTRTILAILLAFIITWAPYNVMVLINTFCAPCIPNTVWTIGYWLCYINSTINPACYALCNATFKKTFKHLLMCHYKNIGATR

[2] = molecular target: T2, Amine oxidase [flavin-containing] A (Homo sapiens, UniProt P21397); assay type: functional
T2 sequence (P21397 whole entry): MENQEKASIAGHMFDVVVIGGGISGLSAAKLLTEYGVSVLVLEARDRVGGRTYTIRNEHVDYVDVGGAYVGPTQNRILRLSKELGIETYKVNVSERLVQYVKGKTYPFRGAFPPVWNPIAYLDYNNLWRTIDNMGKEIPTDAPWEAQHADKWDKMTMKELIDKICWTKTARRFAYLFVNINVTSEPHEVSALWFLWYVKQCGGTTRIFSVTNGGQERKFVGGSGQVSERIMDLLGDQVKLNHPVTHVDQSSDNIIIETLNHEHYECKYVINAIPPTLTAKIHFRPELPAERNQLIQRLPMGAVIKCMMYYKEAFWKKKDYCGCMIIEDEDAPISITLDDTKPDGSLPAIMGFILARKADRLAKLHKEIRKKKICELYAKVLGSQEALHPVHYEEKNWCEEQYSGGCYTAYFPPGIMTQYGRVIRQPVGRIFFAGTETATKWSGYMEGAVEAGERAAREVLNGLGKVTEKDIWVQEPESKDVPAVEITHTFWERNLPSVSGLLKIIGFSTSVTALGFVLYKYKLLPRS

[3] = molecular target: Cannabinoid receptor 1 (Homo sapiens, UniProt P21554); assay type: functional, cell-based
[4] = molecular target: T3, Prostaglandin G/H synthase 1 (Rattus norvegicus, UniProt Q63921); assay type: functional
T3 sequence (Q63921 whole entry): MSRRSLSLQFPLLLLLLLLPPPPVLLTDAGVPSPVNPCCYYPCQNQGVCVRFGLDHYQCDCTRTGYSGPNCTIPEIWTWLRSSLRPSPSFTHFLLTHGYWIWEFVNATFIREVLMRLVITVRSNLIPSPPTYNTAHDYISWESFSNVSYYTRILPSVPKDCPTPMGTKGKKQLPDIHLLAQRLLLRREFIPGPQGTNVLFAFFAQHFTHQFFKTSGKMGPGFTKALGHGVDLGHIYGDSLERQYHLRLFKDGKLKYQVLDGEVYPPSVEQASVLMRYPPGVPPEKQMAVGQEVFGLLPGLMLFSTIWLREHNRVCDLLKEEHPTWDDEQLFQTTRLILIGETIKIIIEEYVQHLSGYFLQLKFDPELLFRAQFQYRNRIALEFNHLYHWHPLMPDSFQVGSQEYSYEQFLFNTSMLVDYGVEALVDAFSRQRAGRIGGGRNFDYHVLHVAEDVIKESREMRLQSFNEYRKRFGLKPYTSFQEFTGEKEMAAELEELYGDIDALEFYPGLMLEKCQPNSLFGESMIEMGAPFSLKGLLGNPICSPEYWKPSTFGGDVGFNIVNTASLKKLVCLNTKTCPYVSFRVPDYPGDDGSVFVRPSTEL

[5] = molecular target: 5-hydroxytryptamine receptor 2A (Homo sapiens, UniProt P28223); assay type: functional, cell-based
[6] = molecular target: T4, Progesterone receptor (Homo sapiens, UniProt P06401); assay type: functional
T4 sequence (P06401 whole entry): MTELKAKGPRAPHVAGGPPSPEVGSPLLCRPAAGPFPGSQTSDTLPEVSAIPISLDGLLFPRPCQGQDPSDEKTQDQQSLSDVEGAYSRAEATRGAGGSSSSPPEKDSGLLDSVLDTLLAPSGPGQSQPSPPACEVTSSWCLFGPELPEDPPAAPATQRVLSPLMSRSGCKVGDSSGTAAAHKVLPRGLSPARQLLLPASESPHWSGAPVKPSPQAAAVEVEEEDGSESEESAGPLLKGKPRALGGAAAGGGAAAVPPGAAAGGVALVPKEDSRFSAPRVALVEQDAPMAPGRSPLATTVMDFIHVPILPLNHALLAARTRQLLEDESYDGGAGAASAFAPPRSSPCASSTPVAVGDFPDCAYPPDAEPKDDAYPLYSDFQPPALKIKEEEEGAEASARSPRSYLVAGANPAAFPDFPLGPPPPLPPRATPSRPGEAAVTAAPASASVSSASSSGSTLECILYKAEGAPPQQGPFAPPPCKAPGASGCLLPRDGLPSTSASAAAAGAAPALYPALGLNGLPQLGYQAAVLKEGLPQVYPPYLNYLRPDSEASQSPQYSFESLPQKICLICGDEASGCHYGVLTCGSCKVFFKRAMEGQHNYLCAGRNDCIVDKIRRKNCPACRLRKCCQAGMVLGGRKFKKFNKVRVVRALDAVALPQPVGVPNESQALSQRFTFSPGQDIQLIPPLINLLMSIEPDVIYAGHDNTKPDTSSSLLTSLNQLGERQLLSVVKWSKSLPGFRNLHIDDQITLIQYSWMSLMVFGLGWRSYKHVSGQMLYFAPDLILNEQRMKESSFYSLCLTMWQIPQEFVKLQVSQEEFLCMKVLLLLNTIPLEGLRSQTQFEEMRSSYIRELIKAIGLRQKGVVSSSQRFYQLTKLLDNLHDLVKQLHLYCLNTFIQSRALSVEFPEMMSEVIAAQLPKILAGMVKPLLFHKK

[7] = molecular target: Delta-type opioid receptor (Homo sapiens, UniProt P41143)
Also: assay procedure not described here.

Delta-type opioid receptor, sequence (P41143 whole entry): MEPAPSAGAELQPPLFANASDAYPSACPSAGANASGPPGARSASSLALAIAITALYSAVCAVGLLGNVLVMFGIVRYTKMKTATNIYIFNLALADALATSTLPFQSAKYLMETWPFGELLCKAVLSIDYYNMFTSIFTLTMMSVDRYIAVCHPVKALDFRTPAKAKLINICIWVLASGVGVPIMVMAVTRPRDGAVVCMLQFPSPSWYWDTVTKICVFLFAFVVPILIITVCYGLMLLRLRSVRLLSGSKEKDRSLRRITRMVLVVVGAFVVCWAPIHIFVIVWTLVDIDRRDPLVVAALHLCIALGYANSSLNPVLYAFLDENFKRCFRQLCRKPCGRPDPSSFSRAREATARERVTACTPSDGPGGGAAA
5-hydroxytryptamine receptor 2A, sequence (P28223 whole entry): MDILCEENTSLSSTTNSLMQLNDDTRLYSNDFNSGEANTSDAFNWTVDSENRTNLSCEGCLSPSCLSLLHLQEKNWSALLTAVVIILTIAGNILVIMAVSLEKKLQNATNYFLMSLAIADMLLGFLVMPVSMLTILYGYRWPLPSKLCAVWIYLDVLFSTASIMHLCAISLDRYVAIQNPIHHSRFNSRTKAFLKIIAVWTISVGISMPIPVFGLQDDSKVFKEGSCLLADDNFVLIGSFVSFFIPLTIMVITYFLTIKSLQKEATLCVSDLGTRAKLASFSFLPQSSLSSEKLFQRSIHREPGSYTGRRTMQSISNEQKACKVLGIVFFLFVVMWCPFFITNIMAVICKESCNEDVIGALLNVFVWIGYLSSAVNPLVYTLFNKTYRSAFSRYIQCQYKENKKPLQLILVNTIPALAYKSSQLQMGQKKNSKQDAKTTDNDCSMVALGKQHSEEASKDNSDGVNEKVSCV
Cannabinoid receptor 1, sequence (P21554 whole entry): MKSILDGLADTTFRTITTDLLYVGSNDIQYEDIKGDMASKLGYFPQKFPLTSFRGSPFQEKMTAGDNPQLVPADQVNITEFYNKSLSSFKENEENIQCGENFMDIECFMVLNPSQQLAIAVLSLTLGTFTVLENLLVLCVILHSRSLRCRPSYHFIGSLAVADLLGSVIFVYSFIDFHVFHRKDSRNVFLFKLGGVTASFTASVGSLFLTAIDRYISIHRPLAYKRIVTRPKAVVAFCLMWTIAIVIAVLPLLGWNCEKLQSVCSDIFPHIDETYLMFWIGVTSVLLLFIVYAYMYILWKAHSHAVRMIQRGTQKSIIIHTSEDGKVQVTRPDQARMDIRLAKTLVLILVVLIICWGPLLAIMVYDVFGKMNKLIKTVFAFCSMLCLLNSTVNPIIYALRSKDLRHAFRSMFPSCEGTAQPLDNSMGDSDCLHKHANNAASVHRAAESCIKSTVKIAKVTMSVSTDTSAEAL

N#Cc1ccccc1-c1cc(-c2ccccn2)cn(-c2ccccc2)c1=O
AC50 [1]: > 30 µM
AC50 [2]: > 30 µM
AC50 [3]: > 30 µM
AC50 [4]: > 30 µM
AC50 [5]: > 30 µM
AC50 [6]: > 30 µM
AC50 [7]: > 30 µM

N=C(N)NCCCCCCC(=O)NC(O)C(=O)NCCCCNCCCN (stereo unspecified)
AC50 [1]: > 30 µM
AC50 [2]: > 30 µM
AC50 [3]: > 30 µM
AC50 [4]: > 30 µM
AC50 [5]: > 30 µM
AC50 [6]: > 30 µM
AC50 [7]: > 30 µM

C=C[C@@]1(C)CC(=O)[C@]2(O)[C@@]3(C)[C@@H](O)CCC(C)(C)[C@@H]3[C@H](OC(=O)CCN(C)C)[C@H](OC(C)=O)[C@@]2(C)O1
AC50 [1]: > 30 µM
AC50 [2]: > 30 µM
AC50 [3]: > 30 µM
AC50 [4]: > 30 µM
AC50 [5]: > 30 µM
AC50 [6]: > 30 µM

NS(=O)(=O)c1cc2c(cc1C(F)(F)F)NC(Cc1ccccc1)NS2(=O)=O (stereo unspecified) [BENDROFLUMETHIAZIDE]
AC50 [1]: > 10 µM
AC50 [2]: > 10 µM
AC50 [4]: > 10 µM
AC50 [5]: > 10 µM
AC50 [6]: > 10 µM
AC50 [7]: > 30 µM

O=C(CCCN1CCC(n2c(O)nc3ccccc32)CC1)c1ccc(F)cc1 [BENPERIDOL]
AC50 [1]: > 30 µM
AC50 [3]: > 30 µM
AC50 [4]: > 30 µM
AC50 [5]: > 30 µM
AC50 [6]: 29 µM
AC50 [7]: > 30 µM

CCC(=O)OCC(=O)[C@@]1(OC(=O)CC)[C@@H](C)C[C@H]2[C@@H]3CCC4=CC(=O)C=C[C@]4(C)[C@@]3(F)[C@@H](O)C[C@@]21C [BETAMETHASONE DIPROPIONATE]
AC50 [1]: > 30 µM
AC50 [2]: > 30 µM
AC50 [3]: > 30 µM
AC50 [4]: > 10 µM
AC50 [5]: > 30 µM

CCCC(C)(COC(N)=O)COC(=O)NC(C)C (stereo unspecified) [CARISOPRODOL]
AC50 [1]: > 10 µM
AC50 [2]: > 10 µM
AC50 [3]: > 30 µM
AC50 [4]: > 30 µM
AC50 [5]: > 30 µM
AC50 [7]: > 30 µM

C=CC1=C(C(=O)O)N2C(=O)[C@@H](NC(=O)/C(=N\OCC(=O)O)c3csc(N)n3)[C@H]2SC1 [CEFIXIME]
AC50 [1]: > 30 µM
AC50 [2]: > 30 µM
AC50 [3]: > 30 µM
AC50 [4]: > 30 µM
AC50 [5]: > 30 µM
AC50 [6]: > 30 µM

N[C@H](Cc1cc(I)c(Oc2cc(I)c(O)c(I)c2)c(I)c1)C(=O)O [DEXTROTHYROXINE]
AC50 [1]: > 10 µM
AC50 [2]: > 10 µM
AC50 [3]: > 30 µM
AC50 [4]: > 30 µM
AC50 [5]: > 30 µM
AC50 [7]: > 30 µM

C[C@@H]1C[C@H]2[C@@H]3C[C@H](F)C4=CC(=O)C=C[C@]4(C)[C@@]3(F)[C@@H](O)C[C@]2(C)[C@H]1C(=O)CO [DIFLUCORTOLONE]
AC50 [2]: > 30 µM
AC50 [4]: > 30 µM
AC50 [5]: > 30 µM
AC50 [6]: > 0.03 µM
AC50 [7]: > 30 µM

COC(=O)N[C@@H](C)CNc1nccc(-c2cn(C(C)C)nc2-c2cc(Cl)cc(NS(C)(=O)=O)c2F)n1 [ENCORAFENIB]
AC50 [1]: > 30 µM
AC50 [2]: > 30 µM
AC50 [4]: > 30 µM
AC50 [5]: > 30 µM
AC50 [6]: > 30 µM
AC50 [7]: > 30 µM

Nc1nc(F)nc2c1ncn2[C@@H]1O[C@H](COP(=O)(O)O)[C@@H](O)[C@@H]1O [FLUDARABINE PHOSPHATE]
AC50 [1]: > 30 µM
AC50 [2]: > 30 µM
AC50 [4]: > 30 µM
AC50 [5]: > 30 µM
AC50 [6]: > 30 µM
AC50 [7]: > 30 µM

O=C(O)c1ccccc1Nc1cccc(C(F)(F)F)c1 [FLUFENAMIC ACID]
AC50 [1]: > 10 µM
AC50 [2]: > 10 µM
AC50 [3]: > 30 µM
AC50 [4]: 18.3 µM
AC50 [5]: > 30 µM
AC50 [7]: > 30 µM

C#C[C@]1(O)CC[C@H]2[C@@H]3CCC4=CC(=O)CCC4=C3C=C[C@@]21CC [GESTRINONE]
AC50 [1]: > 30 µM
AC50 [2]: > 30 µM
AC50 [3]: > 30 µM
AC50 [4]: > 30 µM
AC50 [5]: > 30 µM
AC50 [7]: > 30 µM

CC(CCc1ccccc1)NC(C)C(O)c1ccc(O)cc1 (stereo unspecified) [NYLIDRIN]
AC50 [1]: > 10 µM
AC50 [2]: > 10 µM
AC50 [3]: > 30 µM
AC50 [4]: > 30 µM
AC50 [5]: > 30 µM
AC50 [7]: > 10 µM

O=C1Nc2ccc(Cl)cc2C(c2ccccc2)=NC1O (stereo unspecified) [OXAZEPAM]
AC50 [1]: > 10 µM
AC50 [2]: > 10 µM
AC50 [3]: > 30 µM
AC50 [4]: > 30 µM
AC50 [5]: > 30 µM
AC50 [7]: > 10 µM

CC(=O)O[C@H]1C[C@@H]2CC[C@@H]3[C@H](CC[C@@]4(C)[C@H]3C[C@H]([N+]3(C)CCCCC3)[C@@H]4OC(C)=O)[C@@]2(C)C[C@@H]1[N+]1(C)CCCCC1 [PANCURONIUM]
AC50 [1]: > 10 µM
AC50 [2]: > 10 µM
AC50 [4]: > 10 µM
AC50 [5]: > 10 µM
AC50 [6]: > 10 µM
AC50 [7]: > 30 µM

CC1(C)C(C=C(Cl)Cl)C1C(=O)OCc1cccc(Oc2ccccc2)c1 (stereo unspecified) [PERMETHRIN]
AC50 [1]: > 10 µM
AC50 [2]: > 10 µM
AC50 [4]: > 10 µM
AC50 [5]: > 10 µM
AC50 [6]: > 30 µM
AC50 [7]: > 30 µM

CC(=O)c1ccc2c(c1)N(CCCN1CCC(CCO)CC1)c1ccccc1S2 [PIPERACETAZINE]
AC50 [1]: > 30 µM
AC50 [2]: > 30 µM
AC50 [3]: > 30 µM
AC50 [4]: > 30 µM
AC50 [5]: > 30 µM
AC50 [7]: > 30 µM

NC(=O)CCC/N=C(\c1ccc(Cl)cc1)c1cc(F)ccc1O [PROGABIDE]
AC50 [1]: > 10 µM
AC50 [2]: > 10 µM
AC50 [4]: > 10 µM
AC50 [5]: > 10 µM
AC50 [6]: > 10 µM
AC50 [7]: > 30 µM

CCN(CC)CC(=O)Oc1ccc(NC(C)=O)cc1 [PROPACETAMOL]
AC50 [1]: > 30 µM
AC50 [2]: > 30 µM
AC50 [3]: > 30 µM
AC50 [5]: > 30 µM
AC50 [6]: > 30 µM
AC50 [7]: > 30 µM

CC(NCCc1ccc(O)cc1)C(O)c1ccc(O)cc1 (stereo unspecified) [RITODRINE]
AC50 [1]: > 30 µM
AC50 [2]: > 30 µM
AC50 [4]: > 30 µM
AC50 [5]: > 30 µM
AC50 [6]: > 30 µM
AC50 [7]: > 30 µM

COc1cc2nccc(Oc3ccc(NC(=O)Nc4cc(C)on4)c(Cl)c3)c2cc1OC [TIVOZANIB]
AC50 [1]: > 30 µM
AC50 [2]: > 30 µM
AC50 [4]: > 3 µM
AC50 [5]: > 30 µM
AC50 [6]: > 3 µM

COLISTIN
AC50 [2]: > 30 µM
AC50 [3]: > 30 µM
AC50 [5]: > 30 µM
AC50 [7]: > 30 µM
